Test results from patent US20120021117A1, “METHOD FOR PRESERVING DRINKS” (LANXESS DEUTSCHLAND GMBH, priority 2008, published 2012).
Where two headings read alike, the source gives them in different places.

What was measured:
[1] = system: Lactobacillus brevis; test: Microbiological colony count determination in inoculated apple juice/water 1:1 after 24 hours; assay type: cell-based; conditions: Cell inoculum approximately 100 cells/ml; DMDC concentration not given; duplicate
[2] = system: Saccharomyces cerevisiae; test: Activity of DMDC, LF and their mixtures in inoculated apple juice drink, cell count after one week; assay type: cell-based; conditions: inoculum 375 cells/ml
Procedure: The activity of the individual components DMDC and limonene (in a formulation) and the activity of mixtures of DMDC and limonene (in a formulation) was tested against Saccharomyces cerevisiae.
For this, an apple juice drink was inoculated with 375 cells of Saccharomyces cerevisiae per ml and the active ingredient concentrations reported in Table 1 were added. In the table, DMDC is dimethyl dicarbonate, added as such.
LF was added first and then DMDC. Subsequently thereto the mixtures were thoroughly shaken and incubated at 26° C. for one week. The cell count present was then determined.

[3] = Microbiological keeping time of bottled orange juice drink without sorbate (Example 3); conditions: 0.5 l PET bottles, 500 ppm limonene-containing mixture and/or 200 ppm of DMDC, visual and organoleptic inspection
Text: The samples were thereafter regularly inspected visually and organoleptically.

[4] = orange juice drink with potassium sorbate equivalent to 100 ppm of sorbic acid, 0.5 l PET bottles; 500 ppm limonene-containing mixture and/or 200 ppm of DMDC; visual and organoleptic inspection
Procedure: Thereafter the drink was packaged directly on a drinks bottling line (10 000 l/h) into 0.5 l PET bottles.
In this case the limonene-containing mixture was added during final mixing of the drink, whereas for metering DMDC, an electromagnetic metering pump connected upstream of the filler was used.
As comparative experiment, the same drink was packaged non-preserved, or packaged treated only with DMDC or only with limonene.

SMILES	cell count determination after 24 hours [1]	efficacy, defined as freedom from cells (concentration, component alone) [2]	microbiological keeping time [3]	microbiological keeping time [4]
COC(=O)OC(=O)OC [DMDC, dimethyl dicarbonate]	54/75	above 150 ppm	approximately 20 days	
C/C=C/C=C/C(=O)O [sorbic acid]				approximately 6 days
